From patent publication US20250152555A1, “Pharmaceutical Composition for Preventing or Treating Triple-Negative Breast Cancer” (Daewoong Pharmaceutical Co., Ltd., priority 2021, published 2025) come the findings set out here.

The test system of assay [1] is Hs578T cell line. Description: CellTiter-Glo Luminescent Cell Viability, optimal molar ratio for combination use with Doxorubicin (Experimental Example 2). Format: cell-based, human. Here is the method: (§1) In order to confirm the anticancer efficacy when Fexuprazan and Doxorubicin were administered in combination, cell proliferation was measured for Hs578T (human triple-negative breast cancer cell line) by a CellTiter-Glo® Luminescent Cell Viability (Promega, Catalog #G7571) method. The above evaluation was performed by a method in which when the luciferase enzyme was activated by ATP leaked from living cells, it reacted with a luciferin substrate, and the enzyme activity at this time was measured to confirm the cell viability.
Specifically, 100 μL of cell culture medium (RPMI medium, 10% FBS, 1% P/S, 4.5 g/L D-Glucose, 2.383 g/L HEPES Buffer, L-Glutamine, 1.5 g/L Sodium Bicarbonate, 110 mg/L Sodium pyruvate) was used and each cancer cell line was prepared in a white clear-bottom 96-well microplate. 10 μM of Fexuprazan and 1 μM of Doxorubicin were administered singly and in combination, respectively. As a comparative group, 10 μM of Vonoprazan was administered singly or in combination with Doxorubicin. At this time, 0.1% DMSO was used as a solvent for each composition. […] The reaction was performed at room temperature in a dark room for 10 minutes, and luminescence was measured using a Flexstation3 multi-mode microplate reader. The luciferase enzyme activity, representing the amount of ATP, was measured by a chemiluminescence method according to CellTiter-Glo® Luminescent Cell Viability instructions, and the inhibitory activity was calculated. The results of each compound were analyzed using Microsoft Excel. […]
In order to confirm the optimal combination ratio of Fexuprazan to Doxorubicin, cell proliferation was measured using a CellTiter-Glo® Luminescent Cell Viability (Promega, Catalog #G7571) method in the same manner as in Experimental Example 1. […] The cells were incubated in a 5% CO2 incubator at 37° C. for 48 hours, the luciferase enzyme activity, representing the amount of ATP, was measured by a chemiluminescence method according to CellTiter-Glo® Luminescent Cell Viability instructions, and the inhibitory activity of the compound according to this purpose was calculated. […]
A general note: ATP-based viability assays read luminescence as a measure of living cells.

Assay [2] deals with Hs578T (human triple-negative breast cancer cell line). As to the kind of experiment: CellTiter-Glo Luminescent Cell Viability, combined administration of Doxorubicin (Experimental Example 1). To be noted: for antitumor effect in combination with Doxorubicin compared to administration alone / synergistic effect with Doxorubicin: 10 μM with 1 μM Doxorubicin, Table 1 and FIG. 1; for viability at 10 µM: single agent 10.0 μM, no Doxorubicin. Format: cell-based. Here is the method: as §1
Specifically, 100 μL of cell culture medium (RPMI medium, 10% FBS, 1% P/S, 4.5 g/L D-Glucose, 2.383 g/L HEPES Buffer, L-Glutamine, 1.5 g/L Sodium Bicarbonate, 110 mg/L Sodium pyruvate) was used and each cancer cell line was prepared in a white clear-bottom 96-well microplate. 10 μM of Fexuprazan and 1 μM of Doxorubicin were administered singly and in combination, respectively. As a comparative group, 10 μM of Vonoprazan was administered singly or in combination with Doxorubicin. At this time, 0.1% DMSO was used as a solvent for each composition. Further, 0.1% DMSO was used as a vehicle control. Each experimental group was repeated twice. Plates treated with the compound at respective concentrations were incubated in a 5% CO2 incubator at 37° C. for 48 hours. 100 μL/well of the substrate aqueous solution containing luciferin was added to a white clear-bottom 96 well microplate to initiate the enzymatic reaction. The reaction was performed at room temperature in a dark room for 10 minutes, and luminescence was measured using a Flexstation3 multi-mode microplate reader. The luciferase enzyme activity, representing the amount of ATP, was measured by a chemiluminescence method according to CellTiter-Glo® Luminescent Cell Viability instructions, and the inhibitory activity was calculated. The results of each compound were analyzed using Microsoft Excel. Compound concentrations were converted into logarithmic values using GraphPad Prism software and expressed on the graph.

For assay [3], the system named is Hs578T (human triple negative breast cancer cell line). Description: CellTiter-Glo Luminescent Cell Viability, combined administration of docetaxel (Experimental Example 3). Format: cell-based.
Protocol: 10 μM of Fexuprazan and 1 μM of Doxorubicin were administered singly and in combination, respectively. As a comparative group, 10 μM of Vonoprazan was administered singly or in combination with Doxorubicin. At this time, 0.1% DMSO was used as a solvent for each composition. Further, 0.1% DMSO was used as a vehicle control. Each experimental group was repeated twice. Plates treated with the compound at respective concentrations were incubated in a 5% CO2 incubator at 37° C. for 48 hours. […] The reaction was performed at room temperature in a dark room for 10 minutes, and luminescence was measured using a Flexstation3 multi-mode microplate reader. The luciferase enzyme activity, representing the amount of ATP, was measured by a chemiluminescence method according to CellTiter-Glo® Luminescent Cell Viability instructions, and the inhibitory activity was calculated. […]
Hs578T (human triple negative breast cancer cell line) was incubated in a 96 well clear bottom plate and then stabilized for 24 hours. […] After incubating in a 5% CO2 incubator at 37° C. for 48 hours, the luciferase enzyme activity, representing the amount of ATP, was measured by a chemiluminescence method according to CellTiter-Glo® Luminescent Cell Viability instructions, and the inhibitory activity was calculated. The respective results were analyzed using Microsoft Excel, and significance was confirmed through an unpaired t test in Graphpad Prism software.
Where [4] appears, read: Homo sapiens, Hs-578T, Doxorubicin 1.0 μM alone, 48 hours, read-out: Relative cell viability (%).
[5] abbreviates: Homo sapiens, Hs-578T, 48 hours, read-out: Relative cell viability (%).

Each structure is given as a SMILES string.

With `COc1cccc2c1C(=O)c1c(O)c3c(c(O)c1C2=O)C[C@@](O)(C(=O)CO)C[C@@H]3O[C@H]1C[C@H](N)[C@H](O)[C@H](C)O1` [Doxorubicin], the viability – broadly, a per cent measure of how many cells are alive, often set against a control – at 1 µM was 50% in assay [1] (setting [4]) and 70.6% in assay [2] (setting [4]).
With `CNCc1cn(S(=O)(=O)c2cccc(F)c2)c(-c2ccc(F)cc2F)c1OC` [Fexuprazan, 1-(5-(2,4-difluorophenyl)-1-((3-fluorophenyl)sulfonyl)-4-methoxy-1H-pyrrol-3-yl)-N-methylmethanamine], the “synergistic effect with Doxorubicin, compared to the combined effect of Esomeprazole” value in assay [1] (molar ratio of Doxorubicin and Fexuprazan 1:5 or more) was “synergistic effects”; in assay [1] (molar ratios of Doxorubicin and Fexuprazan 1:10 or more) it was “especially superior”. Besides, in assay [2], the “antitumor effect in combination with Doxorubicin compared to administration alone / synergistic effect with Doxorubicin” value is on record as “superior antitumor effect”. Further, the viability at 10 µM in assay [2] (setting [5]) was 100%.
`CC(=O)O[C@@]12CO[C@@H]1C[C@H](O)[C@@]1(C)C(=O)[C@H](O)C3=C(C)[C@@H](OC(=O)[C@H](O)[C@@H](NC(=O)OC(C)(C)C)c4ccccc4)C[C@@](O)([C@@H](OC(=O)c4ccccc4)[C@H]21)C3(C)C` [Docetaxel, docetaxel]: in assay [3] (Homo sapiens, Hs-578T, Docetaxel 1.0 nM alone, 48 hours, read-out: Relative cell viability (%)), the viability at 0.001 µM amounted to 88.3%. The viability at 0.01 µM in assay [3] (Homo sapiens, Hs-578T, Docetaxel 10.0 nM alone, 48 hours, read-out: Relative cell viability (%)) amounted to 49.3%. Also, in assay [3] (docetaxel 1 nM and 10 nM combined with 10 μM Fexuprazan, Table 3 and FIG. 4), the “synergistic effect on the antitumor effect relative to Esomeprazole” value is “synergistic effect”.
For the compound `CNCc1cc(-c2ccccc2F)n(S(=O)(=O)c2cccnc2)c1` [Vonoprazan], the “antitumor effect in combination with Doxorubicin compared to administration alone / synergistic effect with Doxorubicin” value in assay [2] is “no synergistic effect”. In addition, the viability at 10 µM in assay [2] (setting [5]) was determined as 92.3%.
